Assay results published in US20240325369A1 (priority 2021, published 2024).
“And” between values parts separate entries of the source, which are not always exact repeats. Equal entries are not always repeated. Where two headings read alike, the source gives them in different places.

Test system: metastatic castration-resistant prostate cancer (mCRPC) with DNA-repair anomalies
Experimental: The planned sample size was approximately 120 subjects with measurable disease who were biomarker-positive (approximately 75 subjects with DNA repair anomalies in BRCA [BRCA1 or BRCA2] and approximately 45 subjects with biallelic DNA-repair anomalies in non-BRCA [ATM, FANCA, PALB2, CHEK2, BRIP1, or HDAC2]).
Efficacy objectives were evaluated for subjects meeting the biomarker selection criteria described in the protocol. All subjects were monitored for safety during the study period, and up to 30 days after the last dose of study drug. Treatment continued until disease progression, unacceptable toxicity, death, or termination of the study by the sponsor.
Diagnosis and Main Criteria for Inclusion: The target population consisted of male subjects over the age of 18 years with mCRPC and DNA-repair anomalies (biallelic mutations and germline pathogenic mutations only for BRCA1 or BRCA2 mutations) who had received at least 1 prior taxane-based chemotherapy and at least 1 prior AR targeted therapy (second-generation or later). Subjects were asked to provide a tumor tissue sample (archival or recently collected, if available), and a blood sample for analysis of DNA-repair anomalies using a sponsor-validated assay.
Criteria for Evaluation: Efficacy assessments included chest, abdomen, and pelvis CT or MRI scans and whole-body bone scans (^99mTc) to evaluate objective response and disease progression.
The primary endpoint was ORR and summarized for the BRCA analysis set along with the 95% 2-sided exact CI. In addition, the counts and percentage of subjects in each response category (CR. PR, etc.) were tabulated. ORR in non-BRCA subjects was analyzed in the same way.
Descriptive summaries of CTC response were generated for BRCA and non-BRCA analysis sets, measurable and non-measurable subgroups and tabulated with its 2-sided 95% exact CI. Waterfall plots of percent change in CTC were also presented, showing the percentage change in CTC counts from baseline to 8 weeks, as well as maximal CTC count declines. All time to event secondary endpoints were evaluated using Kaplan-Meier method for BRCA and non-BRCA analysis sets. Median time to event and the corresponding 95% CI were provided. Descriptive summaries were provided for BRCA and non-BRCA analysis sets.
Time to degradation was determined using the following meaningful change threshold values: FACT-P Total (10-point reduction from baseline), EQ-5D-5L Index (0.09-point reduction from baseline). EQ-5D-5L VAS (10-point reduction from baseline), and BPI SF worst pain intensity item (30% reduction from baseline).
The primary endpoint was ORR, defined as the proportion of subjects with BRCA DNA-repair anomalies and measurable disease whose best response was either CR or PR as defined by RECIST 1.1 (Eisenhauer et al 2009) and who had no evidence of bone progression according to the PCWG3 criteria (Scher et al 2016).
ORR final analysis was performed approximately 6 months from Cycle 1 Day 1 of the last subject with a BRCA DNA-repair anomaly and measurable disease. Objective response as determined by investigator assessment was considered as the primary analysis.
Subjects who discontinued the study without a response assessment were considered as non-responders in the analysis. The objective response rate was calculated and its 2-sided 95% exact CI presented. In addition, the counts and percentage of subjects in each response category (CR, PR, etc.) were tabulated.
The following analyses of CTC response were performed for BRCA and non-BRCA analysis sets, measurable and non-measurable subgroups: • Descriptive summaries • CTC response rate was tabulated with its 2-sided 95% exact CI
All time to event secondary endpoints were evaluated using Kaplan-Meier method for BRCA and non-BRCA analysis sets. Median time to event and the corresponding 95% CI were provided. Descriptive summaries were provided for BRCA and non-BRCA analysis sets.

[1] = ALL, ITT (N=223), 300 mg once daily
[2] = ALL, ITT (N=223), 300 mg once daily, listed as niraparib
[3] = ALL, ITT (N=223), Kaplan-Meier, 300 mg once daily
[4] = ALL, ITT with baseline CTC >0 (N=202), 300 mg once daily
[5] = ALL, measurable ITT (N=123), 300 mg once daily
[6] = ALL, measurable ITT responders (N=31), 300 mg once daily
[7] = ALL, measurable ITT responders (N=31), Kaplan-Meier, 300 mg once daily
[8] = BRCA (n = 142), 300 mg once daily
[9] = BRCA, ITT (N=142), 300 mg once daily
[10] = BRCA, ITT (N=142), 300 mg once daily, listed as niraparib
[11] = BRCA, ITT (N=142), Kaplan-Meier, 300 mg once daily

SMILES: NC(=O)c1cccc2cn(-c3ccc([C@@H]4CCCNC4)cc3)nc12 [Niraparib, 2-[4-[(3S)-piperidin-3-yl]phenyl]-2H-indazole-7-carboxamide]
- Duration of complete response in individual subjects (2 BRCA subjects with measurable disease and complete response, 300 mg once daily): 9.7 months and 9.5 months
- Time to PSA progression: 6-month event-free rate [1]: 0.328
- Time to PSA progression: 12-month event-free rate [1]: 0.053
- Time to PSA progression: Censored, % of subjects [1]: (44.4%)
- Time to PSA progression: Censored, number of subjects [1]: 99
- Time to PSA progression: Event, % of subjects [1]: (55.6%)
- Time to PSA progression: Event, number of subjects [1]: 124
- Time to radiographic progression: 6-month event-free rate [1]: 0.494
- Time to radiographic progression: 12-month event-free rate [1]: 0.170
- Time to radiographic progression: 18-month event-free rate [1]: 0.034
- Time to radiographic progression: Censored, % of subjects [1]: (39.9%)
- Time to radiographic progression: Censored, number of subjects [1]: 89
- Time to radiographic progression: Event, % of subjects [1]: (60.1%)
- Time to radiographic progression: Event, number of subjects [1]: 134
- Time to symptomatic skeletal event: 6-month event-free rate [1]: 0.830
- Time to symptomatic skeletal event: 12-month event-free rate [1]: 0.511
- Time to symptomatic skeletal event: 18-month event-free rate [1]: 0.297
- Time to symptomatic skeletal event: 24-month event-free rate [1]: 0.297
- Time to symptomatic skeletal event: Censored, % of subjects [1]: (70.9%)
- Time to symptomatic skeletal event: Censored, number of subjects [1]: 158
- Time to symptomatic skeletal event: Event, % of subjects [1]: (29.1%)
- Time to symptomatic skeletal event: Event, number of subjects [1]: 65
- rPFS: 6-month event-free rate [1]: 0.475
- rPFS: 12-month event-free rate [1]: 0.155
- rPFS: 18-month event-free rate [1]: 0.031
- rPFS: Censored, % of subjects [1]: (35.4%)
- rPFS: Censored, number of subjects [1]: 79
- rPFS: Event, % of subjects [1]: (64.6%)
- rPFS: Event, number of subjects [1]: 144
- Time to PSA progression: Event, % of subjects [2]: 56%
- Time to radiographic progression: Event, % of subjects [2]: 60%
- Time to symptomatic skeletal event: Event, % of subjects [2]: 29%
- Time to symptomatic skeletal event: Event, number of subjects [2]: Sixty-five
- rPFS: Event, % of subjects [2]: 65%
- Time to PSA progression: time to event, 25th percentile [3]: 2.83 months
- Time to PSA progression: time to event, Median [3]: 4.63 months
- Time to radiographic progression: time to event, 25th percentile [3]: 2.76 months
- Time to radiographic progression: time to event, 75th percentile [3]: 11.07 months
- Time to radiographic progression: time to event, Median [3]: 5.78 months
- Time to symptomatic skeletal event (SSE): time to event, Median [3]: 12.88 months
- Time to symptomatic skeletal event: time to event, 25th percentile [3]: 6.97 months
- rPFS: time to event, 25th percentile [3]: 2.07 months
- rPFS: time to event, 75th percentile [3]: 11.01 months
- CTC Response (CTC = 0 at week 8), % of subjects [4]: (18.3%)
- CTC Response (CTC = 0 at week 8), number of subjects [4]: 37
- Best Overall Response: Complete Response (CR), % of subjects [5]: 1.6%
- Best Overall Response: Complete Response (CR), number of subjects [5]: 2
- Best Overall Response: Not Available (NA), % of subjects [5]: 12.2%
- Best Overall Response: Not Available (NA), number of subjects [5]: 15
- Best Overall Response: Partial Response (PR), % of subjects [5]: 23.6%
- Best Overall Response: Partial Response (PR), number of subjects [5]: 29
- Best Overall Response: Progressive Disease (PD), % of subjects [5]: 25.2%
- Best Overall Response: Progressive Disease (PD), number of subjects [5]: 31
- Best Overall Response: Stable Disease (SD), % of subjects [5]: 37.4%
- Best Overall Response: Stable Disease (SD), number of subjects [5]: 46
- ORR (objective response rate, RECIST 1.1, no bone progression per PCWG3), % of subjects [5]: 25.2%
- ORR (objective response rate, RECIST 1.1, no bone progression per PCWG3), number of subjects [5]: 31
- Objective response confirmed: Complete Response (CR), % of subjects [5]: 1.6%
- Objective response confirmed: Complete Response (CR), number of subjects [5]: 2
- Objective response confirmed: Partial Response (PR), % of subjects [5]: 23.6%
- Objective response confirmed: Partial Response (PR), number of subjects [5]: 29
- Duration of objective response: 6-month event-free rate [6]: 0.471
- Duration of objective response: 12-month event-free rate [6]: 0.000
- Duration of objective response: 18-month event-free rate [6]: 0.000
- Duration of objective response: 24-month event-free rate [6]: 0.000
- Duration of objective response: Censored, % of subjects [6]: (22.6%)
- Duration of objective response: Censored, number of subjects [6]: 7
- Duration of objective response: Event, % of subjects [6]: (77.4%)
- Duration of objective response: Event, number of subjects [6]: 24
- Duration of objective response: time to event, 25th percentile [7]: 3.75 months
- Duration of objective response: time to event, 75th percentile [7]: 7.20 months
- Duration of objective response: time to event, Median [7]: 5.55 months
- CRR (composite response rate), % of subjects [8]: 57.7%
- CRR (composite response rate), number of subjects [8]: 82
- PSA50 (≥50% decline in prostate-specific antigen), % of subjects [8]: 43.0%
- PSA50 (≥50% decline in prostate-specific antigen), number of subjects [8]: 61
- Median rPFS in the BRCA cohort relative to the non-BRCA cohort (BRCA vs non-BRCA cohort): approximately double
- Time to PSA progression: 6-month event-free rate [9]: 0.393
- Time to PSA progression: 12-month event-free rate [9]: 0.067
- Time to PSA progression: Censored, % of subjects [9]: (40.1%)
- Time to PSA progression: Event, % of subjects [9]: (59.9%)
- Time to radiographic progression: 6-month event-free rate [9]: 0.593
- Time to radiographic progression: 12-month event-free rate [9]: 0.234
- Time to radiographic progression: 18-month event-free rate [9]: 0.046
- Time to radiographic progression: Censored, % of subjects [9]: (43.0%)
- Time to radiographic progression: Censored, number of subjects [9]: 61
- Time to radiographic progression: Event, % of subjects [9]: (57.0%)
- Time to radiographic progression: Event, number of subjects [9]: 81
- Time to symptomatic skeletal event: 6-month event-free rate [9]: 0.844
- Time to symptomatic skeletal event: 12-month event-free rate [9]: 0.543
- Time to symptomatic skeletal event: 18-month event-free rate [9]: 0.323
- Time to symptomatic skeletal event: 24-month event-free rate [9]: 0.323
- Time to symptomatic skeletal event: Censored, % of subjects [9]: (67.6%)
- Time to symptomatic skeletal event: Censored, number of subjects [9]: 96
- Time to symptomatic skeletal event: Event, % of subjects [9]: (32.4%)
- rPFS: 6-month event-free rate [9]: 0.572
- rPFS: 12-month event-free rate [9]: 0.215
- rPFS: 18-month event-free rate [9]: 0.043
- rPFS: Censored, % of subjects [9]: (38.7%)
- rPFS: Censored, number of subjects [9]: 55
- rPFS: Event, % of subjects [9]: (61.3%)
- rPFS: Event, number of subjects [9]: 87
- Time to PSA progression: Event, % of subjects [10]: 60%
- rPFS: Event, % of subjects [10]: 61%
- Time to PSA progression: time to event, 25th percentile [11]: 3.48 months
- Time to PSA progression: time to event, 75th percentile [11]: 11.07 months
